The subject of experiment [1] is bovine monocyte-derived macrophages. The experiment in a line: Flow cytometric surface marker expression after LPS. The experiment is classed as cell-based. To be noted: 24 hr following LPS after CATH2 removal and 3-day rest; vs vehicle. The text has this:
(§1) Peripheral blood mononuclear cells (PBMC) were isolated from bovine blood using ficoll gradients. Bovine monocytes were isolated from PBMC using magnetic assisted cell sorting to positively select for CD14+ cells using anti-human CD14 microbeads (Miltenyi Biotec). Purified bovine blood CD14+ monocytes were differentiated into macrophages using an M2-skewing differentiation factor (recombinant bovine M-CSF) over 7 days then exposed to CATH2 or a vehicle control in the presence of bovine casein to mimic aspects of the mammary gland for 24 hr. […] Following the rest period, a subset of vehicle- and CATH2-trained monocyte-derived macrophages were assessed for epigenetic and transcriptomic changes. The remaining cells were challenged with LPS or E. coli bioparticle labeled with pH-sensitive pHrodo green dye and key parameters for macrophage activation/immune response were assessed including glycolytic activity, surface marker expression, gene expression, cytokine production, phagocytosis, reactive nitrogen species production, and miRNA profiling.
Expression of surface markers on bovine monocyte-derived macrophages and cells isolated from bovine milk were assessed using flow cytometry. […] Following incubation with live/dead stain and antibodies, labeled cells were washed, and then analyzed on a ZE5 CellAnalyzer (BioRad) for monocyte-derived macrophages and a FACS Canto II (BD) for milk cells. […]

Experiment [2] shares this test system. Nature of the experiment: Phagocytosis of pHrodo green-labeled E. coli bioparticle (IncuCyte). To be noted: <4 hr from challenge with E. coli bioparticles (10 μg/mL); after CATH2 24 hr and 3-day rest; vs vehicle. The class given is cell-based.
Description: as §1, with “profiling. In brief, E. coli bioparticle labeled with pHrodo-green pH sensitive dye (Invitrogen) were added to monocyte-derived macrophages and phase and green fluorescence was captured over time using the S3 IncuCyte® Live-Cell Analysis System (Essen Bioscience) over a period of 24-hr. […]” for “profiling.”

As to “RFGRFLRKIRRFRPKVTITIQGSARFG [CATH2, cathelicidin 2 peptide]”, the “Surface marker expression (CD14, CD80, MHC II, CD163)” value in experiment [1] is on record as “enhanced expression of multiple surface markers”. Also, the “Phagocytosis of E. coli bioparticles” value in experiment [2] was “enhanced phagocytosis of E. coli bioparticles”.
